1 sequence from publication PMC10115881, “Disrupting the α-synuclein-ESCRT interaction with a peptide inhibitor mitigates neurodegeneration in preclinical models of Parkinson’s disease” (Nature Communications, 2023) can be followed below.

One assay has as its system A53T a-syn. Nature of the assay: A53T a-syn immunofluorescence in rat cortical neurons. It counts as cell-based, human. As to conditions: primary rat cortical neurons. The source says: (§1) Pregnant rats (E17) of the Sprague-Dawley strain were purchased from Envigo. Embryos were surgically removed from the mothers and cortices dissected in Hanks Balanced salt solution (Gibco). The meninges were removed, and cells were dissociated using a papain dissociation system (Worthington) before being resuspended in Neurobasal medium A supplemented with antibiotic-antimycotic solution (Gibco), L-glutamine substitute (GlutaMAX™; Gibco) and factor B27 (Gibco). […]
(§2) After fixation, cells were permeabilized with 0.2% Triton-X-100 for 15 min, washed three times with PBS and then incubated with blocking solution (1% BSA, 22.52 mg/mL glycine, 0.1% Tween-20 in PBS or 0.4% saponin, 1% BSA, and 5% goat or donkey serum in PBS) for 1 h. […] Following another three washes with PBS, nuclei were counterstained with DAPI (ThermoFisher) and then coverslips were mounted on slides using Dako fluorescence mounting medium (Agilent) and sealed using clear nail varnish.
Confocal images of immunofluorescent staining were acquired with a Zeiss LSM880 confocal microscope equipped with 405, 488, 555, and 639 nm laser lines. All images were taken within the linear range at constant gain and pinhole settings at optimal resolution settings determined by the software. […]

A further assay has as its system cathepsin D. Nature of the assay: Cathepsin D fluorescence in rat cortical neurons. In kind it is cell-based. As to conditions: A53T a-syn.
From the text: as §1, §2
Confocal images of primary cortical neurons, iPSC-derived dopaminergic neurons, and LAMP1 staining within the SN were processed using Imaris software (Oxford instruments). […] Mean pixel intensity per GFP^+ cell (for experiments using GFP-tagged peptides) or RFP^+ cell (for experiments using RFP-tagged peptides) was calculated for a-syn or LAMP1 signal using the software’s surfaces module. […]

In a further assay the test system is A53T a-syn or EV rats. Nature of the assay: Striatal catecholamines by HPLC. In kind it is in vivo, rat. The note with it: A53T high titer. The procedure: Animals were secured in a stereotactic frame under isoflurane/oxygen anesthesia and ketoprofen (5 mg/kg) analgesia. The surgical site was shaved and sterilized with iodine/betadine prior to making a 2 cm incision along the midline. The scalp was exposed and a unilateral injection targeting the SN was performed at coordinates AP −5.2 mm, ML −2 mm and DV −7.5 mm with respect to the bregma as a point of reference. For each animal, a total volume of 2 μl of virus was injected at a rate of 0.5 μl/min using a microinjection pump and 10 μl Hamilton syringe with a 26-gauge needle. For A53T groups, 1 μl (low dose) or 1.34 μl (high dose) of AAV1/2-A53T a-syn (5.1 × 10^12 genomic particles/ml), 0.14 μl of AAV1/2-PDpep1.3-GFP or Scramble1.3-GFP (5.1 × 10^12 genomic particles/ml) and 0.86 μl or 0.52 μl of sterile PBS was injected; for EV groups, 1 μl (low dose) or 1.34 μl (high dose) of AAV1/2-EV (5.1 × 10^12 genomic particles/ml) replaced AAV1/2-A53T. […]
HPLC was performed as described. […] Catecholamines were determined from the supernatant. Values of catecholamines are expressed as ng analyte/mg total protein.

As for DEEIERQLKALG [PDpep1.3], in the assay on A53T a-syn, the “Effect on A53T a-syn fluorescence” value is recorded as “significant decrease in A53T a-syn fluorescence intensity”. The “Effect on cathepsin D” value in the assay on cathepsin D is “reduced to control levels”. For the same sequence, in the assay on A53T a-syn or EV rats, the “Striatal dopamine, DOPAC and HVA” value is listed as “restored compared with the Scramble1.3 condition”.
